Results from patent US11142547B2, “Polypeptide and use thereof” (Genoimmune Therapeutics Co., Ltd., priority 2016, dated 2021).

Tests used:
[1] = system: T2 cells loaded with polypeptide; assay: CD8+ T cell killing activity by LDH release assay; format: cell-based, human; conditions: T cells activated by listed polypeptide; for Killing of T2 cells loaded with the mutant polypeptide (in words) / Killing of T2 cells loaded with the wild-type polypeptide (in words): effector:target 1:1 or 1:10; for Killing efficiency: 4 hours
Protocol: The mixture of cells collected in the example 3 were incubated with the T2 cells loaded with the mutant polypeptide (depicted in […], SEQ ID NO:1) or the wild-type polypeptide (depicted in […], SEQ ID NO:5), or the T2 cells without polypeptide respectively for 4 hours; after which 50 μL cell supernatant collected from each well was individually added into 50 μL substrate mixture of LDH for catalyzation of the LDH substrate, and the absorbance at wavelengths of 490 nm and 680 nm (as a reference) is measured, where a maximum release well, a volume correction well, a medium alone well, a spontaneous release well of effector cell and a spontaneous release well of target well as different control wells, as well effector cells (T cells) and target cells (T2 cell) in different ratios as experiment wells are set in triplicate.
The killing efficiency of CD8^+ T cells to T2 cells is calculated by the following formula: Killing efficiency (%)=(experiment well−spontaneous release well of effector cell−spontaneous release well of target well+medium alone well)/(maximum release well of target well−volume correction well−spontaneous release well of target well+medium alone well)×100%.
PMS) and reduced lodonitrotetrazolium chloride (INT) or Nitrotetrazolium Blue chloride (NBT), thus the viability of effector cells can be calculated according to the OD value.

[2] = system: human non-small cell lung adenocarcinoma cell line H2087—polypeptide FLLGNLFFV (SEQ ID NO:1); assay: DC polypeptide vaccine in subcutaneous tumor-modeled mice; format: in vivo, NOD/SCID mice; conditions: DCs loaded with the polypeptide, intracutaneous, vs DCs loaded with wild-type polypeptide; FIG. 6
Protocol: (§1) The human non-small cell lung adenocarcinoma cell line NCI-H2087 which is HLA-A*0201 positive was purchased from ATCC (Cat. No.: CRL-5922). The cell line NCI-H2087 was incubated in the Dulbecco's Modified Eagle Medium (DMEM) containing 10% fetal calf serum, 100 U/mL penicillin and 100 U/mL streptomycin in an incubator under 37° C. and 5% CO2, and subsequently infected with the lentivirus expressing the mutant polypeptide (depicted in […], SEQ ID NO:1) as prepared in 6.1. Afterwards, the infected cells were incubated with the Puromycin antibiotic for a certain duration to screen out those viable infected cells, i.e., obtaining the human non-small cell lung adenocarcinoma cell line H2087 which expresses the mutant polypeptide (depicted in […], SEQ ID NO:1) and named as the human non-small cell lung adenocarcinoma cell line H2087—polypeptide […] (SEQ ID NO:1).
(§2) After isolated with Ficoll solution from 600 to 900 ml anticoagulant peripheral blood from a healthy volunteer, the collected PBMCs in a concentration of 2×10^7 cells/0.5 ml were intraperitoneally injected into each of 300 NOD SCID mice without immune leakage, so as to reconstruct a human immune system in the NOD SCID mice, with the mice after 4 weeks selected for subsequent inoculation of the human non-small cell lung adenocarcinoma cell line H2087—polypeptide […] obtained in 6.2.
(§3) The human non-small cell lung adenocarcinoma cell line H2087—polypeptide […] (SEQ ID NO:1) obtained in 6.2 was incubated in DMEM medium containing 10% fetal calf serum, 100 U/mL penicillin and 100 U/mL streptomycin in an incubator under 37° C. and 5% CO2, and then the cells were centrifuged at 3000 rpm for collection. The collected cells were washed with sterile physiological saline three times, and then diluted appropriately. To 40 μl tumor cell suspension, 10 μl 0.4% […] was added for staining, subsequently the tumor cell suspension in a concentration of 1×10^8 cells/ml was prepared after counting under microscope. 100 μl of the tumor cell suspension was inoculated into each of the NOD/SCID mice by subcutaneous injection at 4 weeks post immune reconstruction in 6.3, with daily observation of the presence/absence of infection at inoculation sites, the increase/decrease of tumor size (in the case of presence of a tumor), and measurement of the major axis (a) and the minor axis (b) of a tumor by a vernier caliper every 2 or 3 days (where the tumor size=a×b×b/2). After 7 days from inoculation, a tumor in a size of rice grain was touchable at the inoculation site. After that, the subcutaneous tumor-modeled NOD/SCID mice (modeled with H2087—polypeptide […] (SEQ ID NO:1)) were treated with a polypeptide+complete Freund's adjuvant vaccine, a polypeptide+DCs vaccine, a lentivirus-infected DCs vaccine and a DC-CTL vaccine respectively, with the tumor size and mouse survival rate observed and recorded every 2 days.
Peripheral blood mononuclear cells (PBMCs) in 100 to 150 mL anticoagulant peripheral blood obtained from a healthy volunteer were isolated with Ficoll solution. The collected PBMCs suspended in the RPMI 1640 medium in a concentration of 2×10^6-3×10^6 cells/ml were incubated at 37° C. for 2 hours, obtaining adherent monocytes which can be induced into DCs, and non-adherent peripheral blood lymphocytes (PBLs) for use. Such the monocytes were induced into immature DCs in the presence of GM-CSF (1000 U/ml) and IL-4 (1000 U/ml), followed by inducing to mature DCs in the presence of IFN-γ (100 U/ml) and CD40L (10 ng/ml), as well as the subsequently added 10 μg/ml wild-type polypeptide (depicted in […], SEQ ID NO:5), 10 μg/ml mutant polypeptide (depicted in […], SEQ ID NO:1), 10 μg/ml mutant polypeptide's variant (depicted in […], SEQ ID NO:2), 10 μg/ml mutant polypeptide's variant (depicted in […], SEQ ID NO:3), and 10 μg/ml mutant polypeptide's variant (depicted in […], SEQ ID NO:4), respectively. […]

[3] = system: human non-small cell lung adenocarcinoma cell line H2087—polypeptide FLLGNLFFV (SEQ ID NO:1); assay: Polypeptide-specific DC-CTL vaccine in subcutaneous tumor-modeled mice; format: in vivo, NOD/SCID mice; conditions: CTLs stimulated by DCs loaded with the polypeptide, i.v. 1×10^8 cells/mouse, vs wild-type polypeptide group; FIG. 8
Protocol: as §1, §2, §3
The CD8^+ T cells sorted with CD8 magnetic beads from PBLs in the example 8 were firstly stimulated by incubating with the DCs loaded with the wild-type polypeptide (depicted in […], SEQ ID NO:5), the DCs loaded with the mutant polypeptide (depicted in […], SEQ ID NO:1), the DCs loaded with the mutant polypeptide's variant (depicted in […], SEQ ID NO:2), the DCs loaded with the mutant polypeptide's variant (depicted in […], SEQ ID NO:3), and the DCs loaded with the mutant polypeptide's variant (depicted in […], SEQ ID NO:4), respectively, in a ratio of 1:4 of DCs:CD8^+ T cell, in an incubator under 37° C. and 5% CO2 in the presence of 500 IU/ml IL-2 and 50 ng/ml IL-7, with the second and third stimulations at week 2 and week 3 using DCs loaded with corresponding polypeptides respectively. The number of T lymphocytes was counted at day 0, 7, 14 and 21 post incubation, for calculation of cell proliferation index (PI), where PI=cell number after proliferation/cell number seeded. […]

[4] = effector:target 1:1, T2 cells loaded with mutant FLLGNLFFV
[5] = effector:target 1:1, T2 cells loaded with wild-type FLLGNLSFV
[6] = effector:target 10:1, T2 cells loaded with mutant FLLGNLFFV
[7] = effector:target 10:1, T2 cells loaded with wild-type FLLGNLSFV

FLLGNLFFL
Killing of T2 cells loaded with the mutant polypeptide (in words) [1]: capable of killing | Killing of T2 cells loaded with the wild-type polypeptide (in words) [1]: could not kill | Killing efficiency [1, 4]: 8.53% | Killing efficiency [1, 5]: 3.12% | Killing efficiency [1, 6]: 41.66% | Killing efficiency [1, 7]: 5.71% | Mouse survival period [2]: prolonging the mouse survival period | Tumor growth [2]: mitigating tumor growth significantly | Mouse survival period [3]: prolonging mouse survival period significantly | Tumor growth [3]: inhibiting tumor growth

FLLGNLFFV
Killing of T2 cells loaded with the mutant polypeptide (in words) [1]: capable of killing | Killing of T2 cells loaded with the wild-type polypeptide (in words) [1]: could not kill | Killing efficiency [1, 4]: 8.96% | Killing efficiency [1, 5]: 3.23% | Killing efficiency [1, 6]: 43.89% | Killing efficiency [1, 7]: 6.63% | Mouse survival period [2]: prolonging the mouse survival period | Tumor growth [2]: mitigating tumor growth significantly | Mouse survival period [3]: prolonging mouse survival period significantly | Tumor growth [3]: inhibiting tumor growth

FMLGNLFFL
Killing of T2 cells loaded with the mutant polypeptide (in words) [1]: capable of killing | Killing of T2 cells loaded with the wild-type polypeptide (in words) [1]: could not kill | Killing efficiency [1, 4]: 8.03% | Killing efficiency [1, 5]: 2.85% | Killing efficiency [1, 6]: 38.66% | Killing efficiency [1, 7]: 5.43% | Mouse survival period [2]: prolonging the mouse survival period | Tumor growth [2]: mitigating tumor growth significantly | Mouse survival period [3]: prolonging mouse survival period significantly | Tumor growth [3]: inhibiting tumor growth

FMLGNLFFV
Killing of T2 cells loaded with the mutant polypeptide (in words) [1]: capable of killing | Killing of T2 cells loaded with the wild-type polypeptide (in words) [1]: could not kill | Killing efficiency [1, 4]: 8.12% | Killing efficiency [1, 5]: 2.37% | Killing efficiency [1, 6]: 39.82% | Killing efficiency [1, 7]: 4.93% | Mouse survival period [2]: prolonging the mouse survival period | Tumor growth [2]: mitigating tumor growth significantly | Mouse survival period [3]: prolonging mouse survival period significantly | Tumor growth [3]: inhibiting tumor growth
